Measured values published in publication PMC10887108, “Novel Brain-Penetrant, Small-Molecule Tubulin Destabilizers for the Treatment of Glioblastoma” (Biomedicines, 2024).

Tests used:
U87 glioblastoma cells [1] = test: alamarBlue cell viability assay, U87; format: cell-based; conditions: Homo sapiens, 72 h, U87, 72 h, average absolute IC50
Method: (§1) Cells (100 µL/well) were seeded in 96-well tissue culture plates (Greiner Bio-One 650090; Kremsmünster, Austria). The plating density (cells/well) for each cell line was as follows: LN-18 (3000), U87 (4000), and HMC3 (5000). After overnight incubation, compounds were added to the cells (50 µL at 3× concentration, final 0.1% DMSO), and plates were incubated for 72 h. Cell viability was assessed by the addition of 25 µL of alamarBlue for a final concentration of 100 µM final concentration (Resazurin redox reagent, Sigma-Aldrich R7017; St. Louis, MO, USA). After a 4 h incubation, fluorescence was read on a CLARIOstar Plus plate reader (BMG Labtech, Ortenberg, Germany) at EX 570/EM 590 nm.

[2] = test system: LN-18 glioblastoma cells (TMZ-resistant); test: alamarBlue cell viability assay, LN-18; format: cell-based; conditions: Homo sapiens, LN-18, 72 h, average absolute IC50
Method: as §1

porcine tubulin = molecular target: T1, porcine tubulin (Sus scrofa, UniProt P02554); test: Tubulin polymerization assay (fluorescent reporter); format: biochemical; conditions: porcine tubulin 20 μM; for reduction in tubulin polymerization (AUC): compound 5 μM, relative to DMSO
T1 construct: purchased Cytoskeleton, Inc. BK011P
Method: Tubulin polymerization was evaluated by monitoring the incorporation of a fluorescent reporter into MTs during polymerization. The tubulin polymerization assay kit (Cytoskeleton, Inc. BK011P; Denver, CO, USA) was used according to the manufacturer’s instructions. Briefly, the tubulin reaction mix was kept on ice until immediately prior to use.
(A,B) Representative tubulin polymerization plots and data quantification. […] (C) Immunofluorescence staining of β-tubulin in U87 glioblastoma cells. […] Images were captured using an Operetta confocal microscope at 40× magnification. Scale bar, 10 μm. […] Data was collected with a BD FACS Canto II Flow Cytometer and analyzed using the BD FACSDiva software. (E) The percentage of cells in G1, S, and G2/M phases from the histograms in (D). Data are plotted as mean ± SD from at least three independent experiments. Analysis between groups in (B) was performed using a one-way ANOVA with Tukey’s multiple comparisons test.

[3] = test system: U87 cells (microtubule network); test: Immunofluorescent staining of cellular β-tubulin; format: cell-based, human; conditions: U87, compounds at their IC50 concentrations, 24 h
Method: U87 cells (4000/well) were plated in black 96-well plates (Perkin Elmer 6055302; Waltham, MA, USA) and grown overnight. Cells were treated with compounds for 24 h, fixed with 4% paraformaldehyde for 20 min, and permeabilized with FoxP3 permeabilization buffer (eBioscience/Thermo Fisher Scientific 00-5523-00; Waltham, MA, USA) for 10 min at RT. Cells were incubated with an anti-TUBB3 (Tuj1) antibody (1:1000; […] Technologies 60052; Vancouver, BC, Canada) labeled with Hoechst 33342 dye (1:2000; Thermo Fisher Scientific H3570; Waltham, MA, USA). Images (40×) were taken with an automated high-content imaging microscope (Operetta, Perkin Elmer; Waltham, MA, USA).

U87 glioblastoma cells [4] = test: Cell cycle analysis (propidium iodide flow cytometry); format: cell-based, human; conditions: 48 h
Method: […] Cells were washed in ice-cold PBS, resuspended in 1 mL of ice-cold 70% ethanol, and fixed overnight at −20 °C. Cells were centrifuged and resuspended in PBS containing RNAse A at a final concentration of 0.5 mg/mL (MilliporeSigma 10109142001; Burlington, MA, USA) and propidium iodide at a final concentration of 0.04 mg/mL (Sigma-Aldrich P4170, St. Louis, MO, USA) for 1 h at 37 °C. Nuclear staining was analyzed using a BD FACSCanto II flow cytometer (BD Biosciences; Franklin Lakes, NJ, USA) to determine cell cycle distribution. Cell cycle analysis was performed using the BD FACSDiva software v8.0.

[5] = molecular target: T2, Porcine tubulin (colchicine binding site) (Sus scrofa, UniProt P02554); test: Colchicine competitive binding assay (fluorescence); conditions: compound 50 µM, colchicine 10 μM, tubulin 20 μM
T2 construct: purchased Cytoskeleton, Inc. T240; host or cells: brain tissue (purified)

Structure (SMILES) | IC50 (U87 glioblastoma cells [1]) [µM] | IC50 [2] [µM] | reduction in tubulin polymerization (AUC) (porcine tubulin) | effect on tubulin organization / MT network morphology [3] | cells arrested at G2/M (U87 glioblastoma cells [4]; U87, 5 µM) [%] | increase in tubulin polymerization (AUC) (porcine tubulin; paclitaxel 3 μM) [%] | reduction of colchicine–tubulin fluorescence relative to control [5] [%] | cells arrested at G2/M (U87 glioblastoma cells [4]; U87, 20 nM) [%]
CO[C@H]1CC[C@@H](C(=O)NC(=O)Nc2ccc(Oc3ncc(Cl)cn3)c(C)c2)CC1 [RGN3062] | 0.588 | 0.073 | 36% | substantial tubulin disruption | 73 | – | – | –
CC(=O)O[C@H]1C(=O)[C@@]2(C)[C@H]([C@H](OC(=O)c3ccccc3)[C@]3(O)C[C@H](OC(=O)[C@H](O)[C@@H](NC(=O)c4ccccc4)c4ccccc4)C(C)=C1C3(C)C)[C@]1(OC(C)=O)CO[C@@H]1C[C@@H]2O [PX, paclitaxel, reference compound] | – | – | – | – | – | 91 | – | –
COC(=O)Nc1nc2ccc(C(=O)c3cccs3)cc2[nH]1 [NOC, Nocodazole, reference compound] | – | – | – | – | – | – | 79 | –
COc1cc2c(c(OC)c1OC)-c1ccc(OC)c(=O)cc1[C@@H](NC(C)=O)CC2 [colchicine, reference compound] | – | – | – | varying levels of disruption of tubulin organization | – | – | – | 64
CO[C@H]1CC[C@H](C(=O)NC(=O)Nc2ccc(Oc3ncc(Cl)cn3)c(C)c2)CC1 [RGN3096] | > 10 | 2.43 | no difference relative to the DMSO control | no visible effect on tubulin and cell structure | 11 | – | – | –
